Values of other authors as cited in patent US10918618B2, “Methods of reducing microbial contamination” (3M INNOVATIVE PROPERTIES COMPANY, priority 2005, dated 2021).

Which solubility limit does the source give for `[H]/N=C(\N/C(=N/[H])NCCCCCCNC(=N)NC(=N)Nc1ccc(Cl)cc1)Nc1ccc(Cl)cc1` [diacetate, chlorhexidine] here?
The solubility limit was 1.9 g/100 mL.

Which solubility limit does the source give for `N=C(NCCCCCCNC(=N)NC(=N)Nc1ccc(Cl)cc1)NC(=N)Nc1ccc(Cl)cc1.O=C(O)[C@H](O)[C@@H](O)[C@H](O)[C@H](O)CO.O=C(O)[C@H](O)[C@@H](O)[C@H](O)[C@H](O)CO` [digluconate salt, chlorhexidine digluconate] here?
Its solubility limit is 20 g/100 mL.
